{"source": "patent US20200386744A1", "about": "“NOVEL SCREENING METHOD FOR TGF-BETA INHIBITOR” (The Doshisha, priority 2017, published 2020)", "key": {"[1]": {"tested_on": "immortalized Fuchs' endothelial corneal dystrophy cells (iFECD)", "experiment": "Caspase 3/7 activity (Caspase-Glo 3/7 Assay) in iFECD under TGF-β2 stimulation, primary and secondary screening", "assay_type": "cell-based, human", "settings": "for activity at 10 µM: Homo sapiens", "procedure": "7×10^3 immortalized Fuchs' endothelial corneal dystrophy cells were seeded on a 96-well plate and were cultured for 24 hours under the condition of 5% CO2 at 37° C. Dulbecco's Modified Eagle Medium (DMEM) (nacalai tesque, 26252-94)+10% FBS (Biological Industries/04-001-1A)+1% penicillin-streptomycin (nacalai tesque, 26252-94) was used as the medium. Next, TGF-β2 (manufacturer: R&D Systems, Inc., distributor: Wako Pure Chemical Industries, Ltd./manufacturer codes 302-B2-002, 302-B2-010, distributor codes: 553-62881, 559-62883) (5 ng/mL) alone, or both TGF-β2 (5 ng/mL) and each agent of SCREEN-WELL® FDA Approved Drug Library V2, Japan version (10 μM) were added. After 28 hours under the condition of 5% CO2 at 37° C., cell morphology was observed using a phase difference microscope. Caspase 3/7 activity was then measured using Caspase-Glo 3/7 Assay (Promega, #G8091). DMEM+2% FBS+1% P/S was used as the medium. Caspase 3/7 activity and cell viability in this example were measured using Veritas™ Microplate Luminometer. Such a device enables many samples to be simultaneously measured.\nThe control group was supplemented with a solvent of each reagent, i.e., DMSO (Dimethyl Sulfoxide, Sterile-filtered) (nacalai tesque, 13408-64). Further, Z-VD-FMK (isomer mixture) (Wako Pure Chemical Industries, Ltd./262-02061) (10 μM), which is a caspase inhibitor, was used as the positive control. In the primary screening, measurement of Caspase 3/7 activity was carried out with n=2. […] Caspase activity was measured after being cultured in Dulbecco's Modified Eagle Medium (DMEM)+2% fetal bovine serum (FBS)+1% penicillin/streptomycin (P/S) for 28 hours.\nMeasurement was carried out with n=2 as the primary screening and a TGF-β2 (5 ng/mL) supplemented group was set as 100%. […] (1) and (2) of the control group, TGF-β2 (5 ng/mL) supplemented group, TGF-β2 (5 ng/mL)+Z-VD-FMK supplemented group (10 μM) are n=5 in total.\nEvaluation of Caspase 3/7 activity was carried out with n=5 in the secondary screening."}, "[2]": {"tested_on": "immortalized Fuchs' endothelial corneal dystrophy cells (iFECD)", "experiment": "Cell viability (CellTiter-Glo Luminescent Cell Viability Assay) in iFECD, secondary screening", "assay_type": "cell-based, human", "settings": "agent 10 μM, absence of TGF-β; for Secondary screening Viable cell number (%): 28 hours, n=2, vs candidate compound non-contacted group", "procedure": "In one embodiment, step (b) comprises measurement of cell viability. […] The cell viability is measured in the absence of TGF-β. […] The threshold value of the cell viability may be about 80%, about 85%, about 90%, about 95%, about 98%, about 99%, about 100%. […] Thus, a drug can be accurately selected by measuring cell number in addition to measuring caspase activity. Although the compounds shown in Table 2 appeared to be suppressing caspase activity, the compounds had strong toxicity, wherein cell viability went below 90%, and were thereby removed in the secondary screening.\nCell viability is calculated as an indicator of toxicity with n=2 in CellTiter-Glo® Luminescent Cell Viability Assay (Promega catalogue number: G7570). The cell viability was measured after culturing the cells in Dulbecco's Modified Eagle Medium (DMEM)+2% fetal bovine serum (FBS)+1% penicillin/streptomycin (P/S) for 28 hours. The cell viability was measured in the absence of TGF-β. When the cell viability was below 90%, the cells were removed from ranking."}, "[3]": {"settings": "28 h, secondary screening Caspase 3/7 activity divided by cell viability, read-out: Caspase 3/7 activity/Viable cell number (%)"}, "[4]": {"settings": "TGF-β2 5 ng/mL + agent 10 μM, 28 hours, n=2, TGF-β2 supplemented group set as 100%, read-out: Primary screening Caspase 3/7 activity (%)"}, "[5]": {"settings": "TGF-β2 5 ng/mL + agent 10 μM, 28 hours, n=5, vs candidate compound non-contacted group, read-out: Secondary screening Caspase 3/7 activity (%)"}}, "note": "Counter-ions that a name gives are not always drawn. Like-named read-outs stand apart in the source and are kept apart here.", "data": [{"smiles": "Cc1[nH]c(=O)c(C#N)cc1-c1ccncc1", "note": "[Milrinone]", "values": [{"measurement": "activity at 10 µM", "setting": "[1]; [3]", "result": 95.2, "unit": "%"}, {"measurement": "activity at 10 µM", "setting": "[1]; [4]", "result": 62.5, "unit": "%"}, {"measurement": "activity at 10 µM", "setting": "[1]; [5]", "result": 94.9, "unit": "%"}, {"measurement": "Cell viability class mark (before Viable cell number)", "setting": "[2]", "result": "∘ (90% or more cell viability)"}, {"measurement": "Secondary screening Viable cell number (%)", "setting": "[2]", "result": 99.67, "unit": "%"}]}, {"smiles": "CN1CC2c3ccccc3Oc3ccc(Cl)cc3C2C1", "note": "(stereo not shown) [Asenapine Maleate]", "values": [{"measurement": "activity at 10 µM", "setting": "[1]; [3]", "result": 87.4, "unit": "%"}, {"measurement": "activity at 10 µM", "setting": "[1]; [4]", "result": 72.8, "unit": "%"}, {"measurement": "activity at 10 µM", "setting": "[1]; [5]", "result": 88.8, "unit": "%"}, {"measurement": "Cell viability class mark (before Viable cell number)", "setting": "[2]", "result": "∘ (90% or more cell viability)"}, {"measurement": "Secondary screening Viable cell number (%)", "setting": "[2]", "result": 101.64, "unit": "%"}]}, {"smiles": "O=C(O)c1ccc(-n2nc(-c3ccccc3O)nc2-c2ccccc2O)cc1", "note": "[Deferasirox]", "values": [{"measurement": "activity at 10 µM", "setting": "[1]; [3]", "result": 68.9, "unit": "%"}, {"measurement": "activity at 10 µM", "setting": "[1]; [4]", "result": 50, "unit": "%"}, {"measurement": "activity at 10 µM", "setting": "[1]; [5]", "result": 38.6, "unit": "%"}, {"measurement": "Cell viability class mark (before Viable cell number)", "setting": "[2]", "result": "x (less than 90% cell viability)"}, {"measurement": "Secondary screening Viable cell number (%)", "setting": "[2]", "result": 56.04, "unit": "%"}]}, {"smiles": "COc1cc(NC(C)CCCN)c2ncccc2c1", "note": "(stereo not shown) [Primaquine Phosphate]", "values": [{"measurement": "Cell viability class mark (before Viable cell number)", "setting": "[2]", "result": "∘ (90% or more cell viability)"}, {"measurement": "Secondary screening Viable cell number (%)", "setting": "[2]", "result": 99.7, "unit": "%"}]}, {"smiles": "CC(=O)Oc1ccccc1C(=O)Nc1ncc([N+](=O)[O-])s1", "note": "[Nitazoxanide]", "values": [{"measurement": "activity at 10 µM", "setting": "[1]; [3]", "result": 49.3, "unit": "%"}, {"measurement": "activity at 10 µM", "setting": "[1]; [4]", "result": 36.5, "unit": "%"}, {"measurement": "activity at 10 µM", "setting": "[1]; [5]", "result": 43.3, "unit": "%"}, {"measurement": "Cell viability class mark (before Viable cell number)", "setting": "[2]", "result": "x (less than 90% cell viability)"}, {"measurement": "Secondary screening Viable cell number (%)", "setting": "[2]", "result": 87.81, "unit": "%"}]}, {"smiles": "CN(C)[C@@H]1C(O)=C(C(N)=O)C(=O)[C@@]2(O)C(O)=C3C(=O)c4c(O)cccc4[C@@](C)(O)[C@H]3C[C@@H]12", "note": "[Tetracycline]", "values": [{"measurement": "activity at 10 µM", "setting": "[1]; [3]", "result": 94.3, "unit": "%"}, {"measurement": "activity at 10 µM", "setting": "[1]; [4]", "result": 60.1, "unit": "%"}, {"measurement": "activity at 10 µM", "setting": "[1]; [5]", "result": 93.7, "unit": "%"}, {"measurement": "Cell viability class mark (before Viable cell number)", "setting": "[2]", "result": "∘ (90% or more cell viability)"}, {"measurement": "Secondary screening Viable cell number (%)", "setting": "[2]", "result": 99.31, "unit": "%"}]}, {"smiles": "CC[C@@H]1/C=C(\\C)C[C@H](C)C[C@H](OC)[C@H]2O[C@@](O)(C(=O)C(=O)N3CCCC[C@H]3C(=O)O[C@H](/C(C)=C/[C@@H]3CC[C@H](Cl)[C@H](OC)C3)[C@H](C)[C@@H](O)CC1=O)[C@H](C)C[C@@H]2OC", "note": "[Pimecrolimus]", "values": [{"measurement": "activity at 10 µM", "setting": "[1]; [3]", "result": 62.6, "unit": "%"}, {"measurement": "activity at 10 µM", "setting": "[1]; [4]", "result": 70.1, "unit": "%"}, {"measurement": "activity at 10 µM", "setting": "[1]; [5]", "result": 53, "unit": "%"}, {"measurement": "Cell viability class mark (before Viable cell number)", "setting": "[2]", "result": "x (less than 90% cell viability)"}, {"measurement": "Secondary screening Viable cell number (%)", "setting": "[2]", "result": 84.64, "unit": "%"}]}, {"smiles": "COc1c(C)c2c(c(O)c1C/C=C(\\C)CCC(=O)OCCN1CCOCC1)C(=O)OC2", "note": "[Mycophenolate Mofetil]", "values": [{"measurement": "activity at 10 µM", "setting": "[1]; [3]", "result": 70.4, "unit": "%"}, {"measurement": "activity at 10 µM", "setting": "[1]; [4]", "result": 46.4, "unit": "%"}, {"measurement": "activity at 10 µM", "setting": "[1]; [5]", "result": 47.6, "unit": "%"}, {"measurement": "Cell viability class mark (before Viable cell number)", "setting": "[2]", "result": "x (less than 90% cell viability)"}, {"measurement": "Secondary screening Viable cell number (%)", "setting": "[2]", "result": 67.7, "unit": "%"}]}, {"smiles": "N#Cc1ccc(C(c2ccc(C#N)cc2)n2cncn2)cc1", "note": "[Letrozole]", "values": [{"measurement": "activity at 10 µM", "setting": "[1]; [3]", "result": 102, "unit": "%"}, {"measurement": "activity at 10 µM", "setting": "[1]; [4]", "result": 71.2, "unit": "%"}, {"measurement": "activity at 10 µM", "setting": "[1]; [5]", "result": 104, "unit": "%"}, {"measurement": "Cell viability class mark (before Viable cell number)", "setting": "[2]", "result": "∘ (90% or more cell viability)"}, {"measurement": "Secondary screening Viable cell number (%)", "setting": "[2]", "result": 101.3, "unit": "%"}]}, {"smiles": "CCCC(=O)Nc1ccc(OCC(O)CNC(C)C)c(C(C)=O)c1.Cl", "note": "(stereo not shown) [Acebutolol•HCl]", "values": [{"measurement": "Primary screening Caspase 3/7 activity (%)", "setting": "[1]; TGF-β2 5 ng/mL + agent 10 μM, 28 hours, n=2, TGF-β2 supplemented group set as 100%", "result": 74.30, "unit": "%"}, {"measurement": "Secondary screening Caspase 3/7 activity (%)", "setting": "[1]; TGF-β2 5 ng/mL + agent 10 μM, 28 hours, n=5, vs candidate compound non-contacted group", "result": 88.05, "unit": "%"}, {"measurement": "Caspase 3/7 activity/Viable cell number (%)", "setting": "[1]; secondary screening Caspase 3/7 activity divided by cell viability", "result": 88.25, "unit": "%"}, {"measurement": "Cell viability class mark (before Viable cell number)", "setting": "[2]", "result": "∘ (90% or more cell viability)"}, {"measurement": "Secondary screening Viable cell number (%)", "setting": "[2]", "result": 99.77, "unit": "%"}]}, {"smiles": "COc1ccccc1OCCNCC(O)COc1cccc2[nH]c3ccccc3c12", "note": "(stereo not shown) [Carvedilol]", "values": [{"measurement": "activity at 10 µM", "setting": "[1]; [3]", "result": 71.9, "unit": "%"}, {"measurement": "activity at 10 µM", "setting": "[1]; [4]", "result": 50.3, "unit": "%"}, {"measurement": "activity at 10 µM", "setting": "[1]; [5]", "result": 64.1, "unit": "%"}, {"measurement": "Cell viability class mark (before Viable cell number)", "setting": "[2]", "result": "x (less than 90% cell viability)"}, {"measurement": "Secondary screening Viable cell number (%)", "setting": "[2]", "result": 89.1, "unit": "%"}]}]}
